Values quoted from earlier work as cited in patent publication US11103490B2, “Clevidipine emulsion formulations containing antimicrobial agents” (Chiesi Farmaceutici, S.P.A., priority 2010, dated 2021).

Experiments:
[1] = in vivo

initial phase half-life [1]: about one
terminal half-life [1]: approximately 15 minutes
solubility in lipids: moderate to high
solubility in water: low
Structure (SMILES): CCCC(=O)OCOC(=O)C1=C(C)NC(C)=C(C(=O)OC)C1c1cccc(Cl)c1Cl (stereo not shown) [Clevidipine, clevidipine]
